From ChEMBL document CHEMBL1833857, “Histone deacetylase activators: N-acetylthioureas serve as highly potent and isozyme selective activators for human histone deacetylase-8 on a fluorescent substrate” (Bioorg Med Chem Lett, 2011)
Active and inactive are the calls of the source. The rule behind the calls is not given here.

Legend:
[1] = target: Histone deacetylase 3 (Homo sapiens) (UniProt O15379); test: Inhibition of HDAC3 using Fluor-de-Lys as substrate at 100 uM by spectrofluorometry
[2] = target: T1, Polyamine deacetylase HDAC10 (Homo sapiens) (UniProt Q969S8); test: Activation of HDAC10 using Fluor-de-Lys as substrate at 100 uM by spectrofluorometry
T1 sequence (whole entry): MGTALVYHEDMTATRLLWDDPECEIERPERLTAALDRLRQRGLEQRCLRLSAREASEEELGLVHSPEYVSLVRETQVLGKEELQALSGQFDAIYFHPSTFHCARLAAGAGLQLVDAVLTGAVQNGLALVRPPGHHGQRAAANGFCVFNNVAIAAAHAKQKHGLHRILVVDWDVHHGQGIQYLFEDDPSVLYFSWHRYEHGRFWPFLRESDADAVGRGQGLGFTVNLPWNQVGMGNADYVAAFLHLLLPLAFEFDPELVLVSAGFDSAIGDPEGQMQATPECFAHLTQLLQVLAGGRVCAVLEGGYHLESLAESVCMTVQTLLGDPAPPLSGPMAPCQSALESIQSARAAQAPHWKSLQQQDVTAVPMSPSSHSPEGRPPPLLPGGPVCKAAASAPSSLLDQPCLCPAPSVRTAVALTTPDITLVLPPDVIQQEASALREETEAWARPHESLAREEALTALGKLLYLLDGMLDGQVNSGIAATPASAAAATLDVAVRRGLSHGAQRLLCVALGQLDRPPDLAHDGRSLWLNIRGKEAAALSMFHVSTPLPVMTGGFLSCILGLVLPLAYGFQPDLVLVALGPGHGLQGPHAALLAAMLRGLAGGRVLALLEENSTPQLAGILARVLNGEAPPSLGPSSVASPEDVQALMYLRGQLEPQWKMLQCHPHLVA

[3] = target: T2, Histone deacetylase 11 (Homo sapiens) (UniProt Q96DB2); test: Activation of HDAC11 using Fluor-de-Lys as substrate at 100 uM by spectrofluorometry
T2 sequence (whole entry): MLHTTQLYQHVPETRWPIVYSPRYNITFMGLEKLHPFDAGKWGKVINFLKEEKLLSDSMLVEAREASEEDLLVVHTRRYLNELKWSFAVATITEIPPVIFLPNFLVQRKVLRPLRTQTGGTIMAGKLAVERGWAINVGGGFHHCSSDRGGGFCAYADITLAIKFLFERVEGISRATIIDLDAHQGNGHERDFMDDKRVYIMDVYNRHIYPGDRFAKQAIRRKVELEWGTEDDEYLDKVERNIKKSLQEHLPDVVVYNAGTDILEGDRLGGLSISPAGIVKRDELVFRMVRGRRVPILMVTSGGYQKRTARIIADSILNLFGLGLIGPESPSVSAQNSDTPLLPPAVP

[4] = target: Histone deacetylase 3 (Homo sapiens) (UniProt O15379); test: Activation of HDAC3 using Fluor-de-Lys as substrate at 10 uM by spectrofluorometry
[5] = target: Histone deacetylase 2 (Homo sapiens) (UniProt Q92769); test: Inhibition of HDAC2 using Fluor-de-Lys as substrate at 100 uM by spectrofluorometry
Sequence of Histone deacetylase 2 (Homo sapiens) (Q92769 whole entry): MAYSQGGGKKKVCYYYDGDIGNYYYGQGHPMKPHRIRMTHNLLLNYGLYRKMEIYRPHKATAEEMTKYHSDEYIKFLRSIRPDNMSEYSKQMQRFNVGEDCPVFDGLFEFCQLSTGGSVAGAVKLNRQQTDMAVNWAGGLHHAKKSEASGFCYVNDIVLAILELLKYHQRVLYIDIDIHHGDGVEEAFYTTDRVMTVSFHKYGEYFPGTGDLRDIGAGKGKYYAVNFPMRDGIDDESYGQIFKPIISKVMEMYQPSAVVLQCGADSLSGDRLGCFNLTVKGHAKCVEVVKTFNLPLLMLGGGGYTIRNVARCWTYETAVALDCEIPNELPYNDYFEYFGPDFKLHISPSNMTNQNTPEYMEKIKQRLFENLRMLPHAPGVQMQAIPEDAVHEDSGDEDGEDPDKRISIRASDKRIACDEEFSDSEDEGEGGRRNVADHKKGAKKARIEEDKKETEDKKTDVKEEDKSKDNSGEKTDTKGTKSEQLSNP

[6] = target: T3, Protein deacetylase HDAC6 (Homo sapiens) (UniProt Q9UBN7); test: Activation of HDAC6 using Fluor-de-Lys as substrate at 10 uM by spectrofluorometry
T3 sequence (whole entry): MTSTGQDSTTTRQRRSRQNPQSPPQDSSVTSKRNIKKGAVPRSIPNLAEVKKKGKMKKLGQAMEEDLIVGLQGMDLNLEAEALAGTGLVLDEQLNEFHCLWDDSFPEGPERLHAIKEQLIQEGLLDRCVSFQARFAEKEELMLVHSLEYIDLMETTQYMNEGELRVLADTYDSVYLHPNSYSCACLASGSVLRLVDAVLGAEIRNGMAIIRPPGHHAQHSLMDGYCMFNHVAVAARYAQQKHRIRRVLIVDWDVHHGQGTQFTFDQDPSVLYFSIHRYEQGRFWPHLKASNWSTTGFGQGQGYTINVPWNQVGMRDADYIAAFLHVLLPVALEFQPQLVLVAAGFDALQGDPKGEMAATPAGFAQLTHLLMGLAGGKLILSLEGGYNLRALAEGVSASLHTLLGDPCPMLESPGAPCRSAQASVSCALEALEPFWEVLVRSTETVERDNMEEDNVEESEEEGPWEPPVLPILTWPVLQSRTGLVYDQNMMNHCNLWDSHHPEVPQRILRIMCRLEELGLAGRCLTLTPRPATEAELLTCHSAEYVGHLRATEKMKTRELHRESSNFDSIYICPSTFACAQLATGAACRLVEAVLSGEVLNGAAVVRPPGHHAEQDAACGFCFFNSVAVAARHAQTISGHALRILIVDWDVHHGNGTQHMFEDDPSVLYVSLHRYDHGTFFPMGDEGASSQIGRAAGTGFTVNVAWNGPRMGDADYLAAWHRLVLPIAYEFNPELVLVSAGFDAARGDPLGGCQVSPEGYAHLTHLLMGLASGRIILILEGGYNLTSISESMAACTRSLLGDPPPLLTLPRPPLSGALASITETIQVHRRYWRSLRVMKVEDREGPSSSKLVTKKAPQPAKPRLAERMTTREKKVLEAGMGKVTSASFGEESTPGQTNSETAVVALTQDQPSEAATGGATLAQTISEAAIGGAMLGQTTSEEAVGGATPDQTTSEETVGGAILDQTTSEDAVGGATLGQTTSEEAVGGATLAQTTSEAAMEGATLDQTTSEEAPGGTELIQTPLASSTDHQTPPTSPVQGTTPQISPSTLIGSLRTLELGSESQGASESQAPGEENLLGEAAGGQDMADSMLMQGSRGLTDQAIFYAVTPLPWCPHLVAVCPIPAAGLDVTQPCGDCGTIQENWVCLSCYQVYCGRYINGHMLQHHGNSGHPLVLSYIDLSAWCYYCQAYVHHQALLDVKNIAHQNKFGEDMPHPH

[7] = target: Histone deacetylase 4 (Homo sapiens) (UniProt P56524); test: Activation of HDAC4 using trifluoroacetyl-lysine containing fluorogenic substrate at 10 uM by spectrofluorometry
Sequence of Histone deacetylase 4 (Homo sapiens) (P56524 whole entry): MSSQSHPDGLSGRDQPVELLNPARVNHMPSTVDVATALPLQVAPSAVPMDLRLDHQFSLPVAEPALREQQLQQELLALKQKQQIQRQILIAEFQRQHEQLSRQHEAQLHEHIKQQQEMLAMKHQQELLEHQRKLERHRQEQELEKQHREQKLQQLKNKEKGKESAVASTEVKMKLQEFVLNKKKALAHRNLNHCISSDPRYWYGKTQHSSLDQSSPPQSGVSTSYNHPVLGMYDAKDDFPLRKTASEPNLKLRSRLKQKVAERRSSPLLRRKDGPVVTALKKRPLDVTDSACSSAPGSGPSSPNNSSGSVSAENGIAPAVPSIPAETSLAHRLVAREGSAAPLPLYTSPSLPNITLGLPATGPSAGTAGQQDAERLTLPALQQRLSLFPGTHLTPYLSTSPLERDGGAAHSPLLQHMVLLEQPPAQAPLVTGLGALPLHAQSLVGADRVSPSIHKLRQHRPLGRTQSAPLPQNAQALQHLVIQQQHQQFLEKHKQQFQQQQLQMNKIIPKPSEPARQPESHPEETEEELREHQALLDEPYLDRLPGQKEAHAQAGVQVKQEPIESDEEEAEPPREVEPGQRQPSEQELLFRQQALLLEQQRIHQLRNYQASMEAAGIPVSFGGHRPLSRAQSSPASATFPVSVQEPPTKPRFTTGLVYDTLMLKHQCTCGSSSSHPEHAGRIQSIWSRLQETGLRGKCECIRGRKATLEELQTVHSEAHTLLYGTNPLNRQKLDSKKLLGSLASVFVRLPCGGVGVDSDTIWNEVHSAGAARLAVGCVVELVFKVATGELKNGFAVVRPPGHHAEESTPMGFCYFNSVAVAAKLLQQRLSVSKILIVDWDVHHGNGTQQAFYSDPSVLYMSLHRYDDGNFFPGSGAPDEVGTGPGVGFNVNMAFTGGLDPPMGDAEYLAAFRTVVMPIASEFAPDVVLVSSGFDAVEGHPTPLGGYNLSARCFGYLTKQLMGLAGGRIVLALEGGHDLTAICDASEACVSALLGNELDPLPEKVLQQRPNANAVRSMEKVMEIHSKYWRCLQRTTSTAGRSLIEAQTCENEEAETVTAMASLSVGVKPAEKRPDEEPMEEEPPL

[8] = target: Histone deacetylase 1 (Homo sapiens) (UniProt Q13547); test: Inhibition of HDAC1 using Fluor-de-Lys as substrate at 100 uM by spectrofluorometry
Sequence of Histone deacetylase 1 (Homo sapiens) (Q13547 whole entry): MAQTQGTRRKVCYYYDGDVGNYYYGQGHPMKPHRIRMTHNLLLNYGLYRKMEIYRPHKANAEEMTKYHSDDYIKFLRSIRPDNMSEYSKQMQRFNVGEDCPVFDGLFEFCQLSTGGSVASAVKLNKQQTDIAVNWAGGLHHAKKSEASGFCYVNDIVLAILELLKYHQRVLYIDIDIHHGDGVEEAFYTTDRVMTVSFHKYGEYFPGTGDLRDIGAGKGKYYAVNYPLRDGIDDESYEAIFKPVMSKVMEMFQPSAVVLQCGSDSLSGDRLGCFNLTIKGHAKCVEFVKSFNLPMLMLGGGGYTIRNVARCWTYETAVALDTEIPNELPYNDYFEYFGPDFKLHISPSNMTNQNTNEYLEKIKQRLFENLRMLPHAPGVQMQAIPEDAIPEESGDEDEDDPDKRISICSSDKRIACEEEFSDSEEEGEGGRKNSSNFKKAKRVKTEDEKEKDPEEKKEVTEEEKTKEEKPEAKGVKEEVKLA

[9] = target: T3, Protein deacetylase HDAC6 (Homo sapiens); test: Activation of HDAC6 using Fluor-de-Lys as substrate at 100 uM by spectrofluorometry
[10] = target: Histone deacetylase 4 (Homo sapiens) (UniProt P56524); test: Activation of HDAC4 using trifluoroacetyl-lysine containing fluorogenic substrate at 100 uM by spectrofluorometry
[11] = target: Histone deacetylase 3 (Homo sapiens) (UniProt O15379); test: Activation of HDAC3 using Fluor-de-Lys as substrate at 100 uM by spectrofluorometry
[12] = target: T4, Histone deacetylase 8 (Homo sapiens) (UniProt Q9BY41); test: Activation of recombinant human HDAC8 assessed as ratio of the initial rate of reaction in the absence and presence of compound using Fluor-de-Lys as substrate at 10 uM by spectrofluorometry
T4 sequence (whole entry): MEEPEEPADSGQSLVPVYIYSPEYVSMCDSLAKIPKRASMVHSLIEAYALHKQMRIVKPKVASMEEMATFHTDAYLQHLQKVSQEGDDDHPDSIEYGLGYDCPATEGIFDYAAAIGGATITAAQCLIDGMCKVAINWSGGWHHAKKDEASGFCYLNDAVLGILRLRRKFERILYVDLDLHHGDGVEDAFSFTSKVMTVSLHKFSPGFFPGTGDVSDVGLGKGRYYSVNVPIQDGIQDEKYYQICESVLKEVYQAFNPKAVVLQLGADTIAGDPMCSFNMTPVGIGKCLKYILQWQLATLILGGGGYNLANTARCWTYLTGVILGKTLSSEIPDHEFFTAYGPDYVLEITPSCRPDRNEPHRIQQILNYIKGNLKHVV

[13] = target: Histone deacetylase 4 (Homo sapiens) (UniProt P56524); test: Inhibition of HDAC4 using trifluoroacetyl-lysine containing fluorogenic substrate at 100 uM by spectrofluorometry
[14] = target: T1, Polyamine deacetylase HDAC10 (Homo sapiens); test: Activation of HDAC10 using Fluor-de-Lys as substrate at 10 uM by spectrofluorometry
[15] = target: Histone deacetylase 2 (Homo sapiens) (UniProt Q92769); test: Activation of HDAC2 using Fluor-de-Lys as substrate at 10 uM by spectrofluorometry
[16] = target: T1, Polyamine deacetylase HDAC10 (Homo sapiens); test: Inhibition of HDAC10 using Fluor-de-Lys as substrate at 100 uM by spectrofluorometry
[17] = target: T2, Histone deacetylase 11 (Homo sapiens); test: Inhibition of HDAC11 using Fluor-de-Lys as substrate at 100 uM by spectrofluorometry
[18] = target: T2, Histone deacetylase 11 (Homo sapiens); test: Activation of HDAC11 using Fluor-de-Lys as substrate at 10 uM by spectrofluorometry
[19] = target: Histone deacetylase 2 (Homo sapiens) (UniProt Q92769); test: Activation of HDAC2 using Fluor-de-Lys as substrate at 100 uM by spectrofluorometry
[20] = target: T3, Protein deacetylase HDAC6 (Homo sapiens); test: Inhibition of HDAC6 using Fluor-de-Lys as substrate at 100 uM by spectrofluorometry
[21] = target: Histone deacetylase 1 (Homo sapiens) (UniProt Q13547); test: Activation of HDAC1 using Fluor-de-Lys as substrate at 10 uM by spectrofluorometry
[22] = target: Histone deacetylase 1 (Homo sapiens) (UniProt Q13547); test: Activation of HDAC1 using Fluor-de-Lys as substrate at 100 uM by spectrofluorometry
[23] = Solubility of the compound at 100 uM; type: physicochemical
[24] = target: T4, Histone deacetylase 8 (Homo sapiens); test: Activation of recombinant human HDAC8 assessed as increase in ratio of Kcat to Km using Fluor-de-Lys as substrate by spectrofluorometry relative to control
[25] = target: T4, Histone deacetylase 8 (Homo sapiens); test: Activation of recombinant human HDAC8 assessed as decrease in Km using Fluor-de-Lys as substrate by spectrofluorometry
[26] = target: T4, Histone deacetylase 8 (Homo sapiens); test: Activation of recombinant human HDAC8 using Fluor-de-Lys as substrate by spectrofluorometry
[27] = target: T4, Histone deacetylase 8 (Homo sapiens); test: Maximum activation of recombinant human HDAC8 using Fluor-de-Lys as substrate by spectrofluorometry relative to control
[28] = target: T4, Histone deacetylase 8 (Homo sapiens); test: Activation of recombinant human HDAC8 assessed as increase in Kcat using Fluor-de-Lys as substrate by spectrofluorometry relative to control

Sequence of Histone deacetylase 3 (Homo sapiens) (O15379 whole entry): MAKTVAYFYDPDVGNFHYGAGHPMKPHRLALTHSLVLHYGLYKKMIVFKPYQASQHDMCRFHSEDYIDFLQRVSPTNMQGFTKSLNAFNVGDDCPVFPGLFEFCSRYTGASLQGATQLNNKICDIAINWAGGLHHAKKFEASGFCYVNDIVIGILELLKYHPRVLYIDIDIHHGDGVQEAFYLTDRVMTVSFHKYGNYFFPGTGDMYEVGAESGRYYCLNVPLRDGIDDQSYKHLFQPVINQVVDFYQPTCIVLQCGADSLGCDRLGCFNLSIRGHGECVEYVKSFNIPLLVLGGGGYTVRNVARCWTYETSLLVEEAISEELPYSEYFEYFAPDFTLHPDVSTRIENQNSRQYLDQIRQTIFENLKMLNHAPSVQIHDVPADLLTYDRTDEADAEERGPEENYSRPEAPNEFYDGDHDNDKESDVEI

inhibition [1] | Activity [2] | Activity [3] | Activity [4] | inhibition [5] | Activity [6] | Activity [7] | inhibition [8] | Activity [9] | Activity [10] | Activity [11] | fold change (FC) [12] | inhibition [13] | Activity [14] | Activity [15] | inhibition [16] | inhibition [17] | Activity [18] | Activity [19] | inhibition [20] | SMILES | also measured
inactive | inactive | inactive | inactive | inactive | inactive | inactive | 5% | inactive | inactive | inactive | 3.3 | inactive | inactive | inactive | inactive | inactive | inactive | inactive | inactive | O=C(NC(=S)NCc1ccccc1)c1ccccc1 | 
6% |  |  |  | 8% |  | inactive | 8% |  | inactive |  | 12 | inactive |  |  | 15% | 14% |  |  | 30% | O=C(NC(=S)Nc1ccccc1)c1ccccc1 | fold change (FC) [24]: 16; fold change (FC) [25]: 3; Ka [26]: 12.4 µM; fold change (FC) [27]: 26.8; fold change (FC) [28]: 5

More lines, now with the values behind:

SMILES | inhibition [1] | Activity [2] | Activity [3] | Activity [4] | inhibition [5] | Activity [6] | Activity [7] | inhibition [8] | Activity [9] | Activity [10] | Activity [11] | fold change (FC) [12] | inhibition [13] | Activity [14] | Activity [15] | inhibition [16] | inhibition [17] | Activity [18] | Activity [19] | inhibition [20] | also measured
O=C(NC(=S)Nc1ccccc1)c1ccccc1F | inactive | inactive | inactive | inactive | inactive | inactive | inactive | 5% | inactive | inactive | inactive | 3.5 | inactive | inactive | inactive | inactive | inactive | inactive | inactive | inactive | 
O=C(NC(=S)NCc1ccc(C(F)(F)F)cc1)c1ccccc1 | 5% | inactive | inactive |  | 7% | inactive | inactive | inactive | inactive | inactive |  | 1.2 | inactive | inactive |  | inactive | inactive | inactive |  | inactive | Activity [21]: inactive; Activity [22]: inactive
Cc1cc(=O)oc2cc(NC(=S)NC(=O)c3ccccc3)ccc12 |  |  |  |  |  |  | inactive |  |  | inactive |  | 2 |  |  |  |  |  |  |  |  | solubility [23]: Insoluble
O=C(NC(=S)NC1CCCCC1)c1ccccc1 | inactive | inactive | inactive | inactive | inactive | inactive | inactive | 5% | inactive | inactive | inactive | 5.6 | inactive | inactive | inactive | inactive | inactive | inactive | inactive | inactive | 
O=C(NC(=S)NCCc1ccccc1)c1ccccc1 | inactive | inactive |  | inactive | inactive | inactive | inactive | inactive | inactive | inactive | inactive | 2 | inactive | inactive | inactive | inactive | 6% |  | inactive | inactive | Activity [21]: inactive; Activity [22]: inactive
